Assay results as given in PubChem BioAssay AID1963986 (Molecular Pharmacology Branch, DTP, NCI, 2024).

Test system: 171881-019-R-J1-PDC tumor spheroid viability
Test: Anticancer human tumor 171881-019-R-J1-PDC patient-derived invasive breast carcinoma cell line growth inhibition [PI3K]
Conditions: spheroids with HUVEC and MSC; for IC50: curve of first compound; for viability, T/C: stronger effect = lower value; active = viability on the fitted dose curve at most 10% of control; inactive = the rest
Text: Combinatorial screen of targeted agents with the PI3K inhibitors inavolisib, alpelisib, duvelisib, and copanlisib in multi-cell type tumor spheroids
A high-throughput screen of multi-cell type tumor spheroids was designed to identify active combinations of targeted small molecules and PI3K pathway inhibitors. Complex spheroids include a stromal component modeled by human endothelial cells (HUVEC) and fibroblasts modeled by human mesenchymal stem cells (MSCs). The concentration ranges selected for each drug and investigational agent were based upon clinically achievable concentrations if the clinical Cmax of the agent was known.
Compounds. The drugs and investigational agents: inavolisib (NSC800729), alpelisib (NSC765974), duvelisib (NSC772469), copanlisib (NSC816437), ipatasertib (NSC767898), afuresertib (NSC778305), talazoparib (NSC767125), sapanisertib (NSC764658), selumetinib (NSC741078), tovorafenib (DAY101, NSC766906), vemurafenib (NSC761431), ravoxertinib (NSC781343), sotorasib (NSC818433), MRTX1133 (NSC 836407), abemaciclib (NSC 768073), palbociclib (NSC758247), venetoclax (NSC 766270), SY5609 (NSC837396), enzalutamide (NSC755605), and darolutamide (NSC825331), were obtained from the National Cancer Institute (NCI) Developmental Therapeutics Program Chemical Repository. The FDA-approved anticancer drug set is available from the NCI Developmental Therapeutics Program. […] The stock solutions were prepared in dimethyl sulfoxide (DMSO, Sigma-Aldrich, St. Louis, MO, cat. D2650) at 800-fold the tested concentration and stored at -70 degrees C prior to their use. All drugs and investigational agents were tested over a range starting from a high concentration at or near the clinical Cmax and decreasing in half-log increments. If the clinical Cmax for an agent had not been determined, the highest concentration tested was 10 microM.
Cell Culture. All cells were maintained in an incubator at 37 degrees C and 5% CO2 with 95% humidity. The PDC lines were cultured according to standard operating procedures established by the NCI PDMR (https://pdmr.cancer.gov/sops/default.htm). All PDCs were thawed and cultured in Matrigel-coated flasks prepared with a working solution of 1X Ham's F-12 nutrient mix, without supplementation (Invitrogen, Waltham, MA, cat. 11765054), 100 U/mL penicillin-streptomycin (Invitrogen, cat. 15140122), and 2.5% Matrigel (Corning Inc., Corning, NY, cat. 354248) for the first three passages. The 354836-022-R-J1-PDC, 475296-252-R-J1-PDC, and 997726-040-R-J2-PDC lines were cultured in 6A media, which includes advanced DMEM/F-12 (Thermo Fisher Scientific, cat. 12634028), 10 mM HEPES (Thermo Fisher Scientific, cat. 15630080), 1X GlutaMAX supplement (Thermo Fisher Scientific, cat. 35050061), 0.1 mg/mL primocin (InvivoGen, San Diego, CA, cat. ant-pm-2), 10% defined fetal bovine serum, heat inactivated (HyClone Laboratories Inc., Logan, UT, cat. SH30070.03HI), 50% L-WRN conditioned media (ATCC, cat. CRL-3276), 1.25 mM N-Acetyl-L-cysteine (Sigma-Aldrich, cat. A9165), 10 mM nicotinamide (Sigma-Aldrich, cat. N0636), 1X B-27 supplement (Thermo Fisher Scientific, cat. 17504044), 1X N-2 supplement (Thermo Fisher Scientific, cat. 17502048), and 10 microM Y-27632 dihydrochloride (Tocris Bioscience, Bristol, United Kingdom, cat. 1254). The 624824-186-R-J2-PDC line was cultured in 6C/Colon 1B media, which includes all 6A media components plus 50 ng/mL human EGF recombinant protein (Thermo Fisher Scientific, cat. PHG0311). […]

[1] = second compound 0.0316 µM, first compound 0.0316 µM
[2] = second compound 0.0316 µM, first compound 0.1 µM
[3] = second compound 0.0316 µM, first compound 0.316 µM
[4] = second compound 0.0316 µM, first compound 1 µM
[5] = second compound 0.1 µM, first compound 0.0316 µM
[6] = second compound 0.1 µM, first compound 0.1 µM
[7] = second compound 0.1 µM, first compound 0.316 µM
[8] = second compound 0.1 µM, first compound 1 µM
[9] = second compound 0.316 µM, first compound 0.0316 µM
[10] = second compound 0.316 µM, first compound 0.1 µM
[11] = second compound 0.316 µM, first compound 0.316 µM
[12] = second compound 0.316 µM, first compound 1 µM
[13] = second compound 1 µM, first compound 0.0316 µM
[14] = second compound 1 µM, first compound 0.1 µM
[15] = second compound 1 µM, first compound 0.316 µM
[16] = second compound 1 µM, first compound 1 µM
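Also: spheroids exposed to compound for 7 days before viability read.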
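For viability, T/C in this document: 100% = DMSO vehicle-treated spheroids.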

Cn1ncc(Cl)c1-c1cc(C(=O)NC(CN)Cc2cccc(F)c2)sc1Cl (centres undefined) + COc1c(OCCCN2CCOCC2)ccc2c3n(c(=NC(=O)c4cnc(N)nc4)nc12)CCN3
< 31.6 nM: IC50 (second compound 0.01 µM) | IC50 (second compound 0.0316 µM) | IC50 (second compound 0.1 µM) | IC50 (second compound 0.316 µM) | IC50 (second compound 1 µM)
74.5 nM: IC50 (second compound 0.00316 µM)
active: viability, T/C (second compound 0.00316 µM, first compound 3.16 µM) 11.5% | viability, T/C (second compound 0.00316 µM, first compound 10 µM) 3.72% | viability, T/C (second compound 0.01 µM, first compound 3.16 µM) 9.82% | viability, T/C (second compound 0.01 µM, first compound 10 µM) 4.66% | viability, T/C (second compound 0.0316 µM, first compound 3.16 µM) 7.85% | viability, T/C (second compound 0.0316 µM, first compound 10 µM) 4.52% | viability, T/C [5] 8.56% | viability, T/C [6] 6.38% | viability, T/C [7] 6.32% | viability, T/C [8] 5.69% | viability, T/C (second compound 0.1 µM, first compound 3.16 µM) 4.46% | viability, T/C (second compound 0.1 µM, first compound 10 µM) 2.26% | viability, T/C [9] 2.05% | viability, T/C [10] 1.87% | viability, T/C [11] 1.74% | viability, T/C [12] 1.64% | viability, T/C (second compound 0.316 µM, first compound 3.16 µM) 1.47% | viability, T/C (second compound 0.316 µM, first compound 10 µM) 1.92% | viability, T/C [13] 0.97% | viability, T/C [14] 1.14% | viability, T/C [15] 1.37% | viability, T/C [16] 0.72% | viability, T/C (second compound 1 µM, first compound 3.16 µM) 0.77% | viability, T/C (second compound 1 µM, first compound 10 µM) 0.22%
inactive: viability, T/C (second compound 0.00316 µM, first compound 0.0316 µM) 63.8% | viability, T/C (second compound 0.00316 µM, first compound 0.1 µM) 46.4% | viability, T/C (second compound 0.00316 µM, first compound 0.316 µM) 27.6% | viability, T/C (second compound 0.00316 µM, first compound 1 µM) 17.7% | viability, T/C (second compound 0.01 µM, first compound 0.0316 µM) 48.2% | viability, T/C (second compound 0.01 µM, first compound 0.1 µM) 37.2% | viability, T/C (second compound 0.01 µM, first compound 0.316 µM) 23.7% | viability, T/C (second compound 0.01 µM, first compound 1 µM) 16.4% | viability, T/C [1] 24.1% | viability, T/C [2] 22% | viability, T/C [3] 15.6% | viability, T/C [4] 11.3%

CCN1CCN(Cc2ccc(Nc3ncc(F)c(-c4cc(F)c5nc(C)n(C(C)C)c5c4)n3)nc2)CC1 + Cc1nc(NC(=O)N2CCCC2C(N)=O)sc1-c1ccnc(C(C)(C)C(F)(F)F)c1
> 1000 nM: IC50 (second compound 0.0316 µM) | IC50 (second compound 0.1 µM) | IC50 (second compound 0.316 µM)
inactive: viability, T/C (second compound 0.0316 µM, first compound 0.00316 µM) 102% | viability, T/C (second compound 0.0316 µM, first compound 0.01 µM) 92.9% | viability, T/C [1] 98.6% | viability, T/C [2] 103% | viability, T/C [3] 111% | viability, T/C [4] 103% | viability, T/C (second compound 0.1 µM, first compound 0.00316 µM) 83.9% | viability, T/C (second compound 0.1 µM, first compound 0.01 µM) 85.8% | viability, T/C [5] 91.5% | viability, T/C [6] 91.9% | viability, T/C [7] 105% | viability, T/C [8] 104% | viability, T/C (second compound 0.316 µM, first compound 0.00316 µM) 59.5% | viability, T/C (second compound 0.316 µM, first compound 0.01 µM) 61.1% | viability, T/C [9] 72.2% | viability, T/C [10] 73.8% | viability, T/C [11] 80.7% | viability, T/C [12] 83.3% | viability, T/C (second compound 1 µM, first compound 0.00316 µM) 37.2% | viability, T/C (second compound 1 µM, first compound 0.01 µM) 38.8% | viability, T/C [13] 39.1% | viability, T/C [14] 45% | viability, T/C [15] 53.3% | viability, T/C [16] 61.5% | viability, T/C (second compound 3.16 µM, first compound 0.00316 µM) 15.4% | viability, T/C (second compound 3.16 µM, first compound 0.01 µM) 17% | viability, T/C (second compound 3.16 µM, first compound 0.0316 µM) 19.5% | viability, T/C (second compound 3.16 µM, first compound 0.1 µM) 21% | viability, T/C (second compound 3.16 µM, first compound 0.316 µM) 28.6% | viability, T/C (second compound 3.16 µM, first compound 1 µM) 42%
active: viability, T/C (second compound 10 µM, first compound 0.00316 µM) 3.79% | viability, T/C (second compound 10 µM, first compound 0.01 µM) 4.44% | viability, T/C (second compound 10 µM, first compound 0.0316 µM) 4.59% | viability, T/C (second compound 10 µM, first compound 0.1 µM) 4.85% | viability, T/C (second compound 10 µM, first compound 0.316 µM) 8.73% | viability, T/C (second compound 10 µM, first compound 1 µM) 14.2%
< 3.16 nM: IC50 (second compound 1 µM) | IC50 (second compound 3.16 µM) | IC50 (second compound 10 µM)
